In patent US5552404A, “Opioid compounds and methods for using same” (Delta Pharmaceuticals, Inc., priority 1995, dated 1996):

Tests used:
rodent test subjects [1] = assay: Proconvulsant activity in rodent tests
rodent test subjects [2] = assay: Analgesia; type: in vivo; settings: for analgesia efficacy: in vivo; for analgesia compared with morphine: rodent test subjects
[3] = system: opioid receptors (mu/delta); assay: Opioid receptor ligand selectivity / mixed agonist character
rodent test subjects [4] = assay: Muscle rigidity in rodents; settings: vs morphine
mu opioid receptor = assay: Agonism at mu opioid receptor
rodent test subjects [5] = assay: Respiratory depression in rodents; settings: vs morphine
delta opioid receptor = delta opioid receptor (Mus musculus, UniProt P32300); assay: Agonism at delta opioid receptor
delta opioid receptor, sequence (P32300 whole entry): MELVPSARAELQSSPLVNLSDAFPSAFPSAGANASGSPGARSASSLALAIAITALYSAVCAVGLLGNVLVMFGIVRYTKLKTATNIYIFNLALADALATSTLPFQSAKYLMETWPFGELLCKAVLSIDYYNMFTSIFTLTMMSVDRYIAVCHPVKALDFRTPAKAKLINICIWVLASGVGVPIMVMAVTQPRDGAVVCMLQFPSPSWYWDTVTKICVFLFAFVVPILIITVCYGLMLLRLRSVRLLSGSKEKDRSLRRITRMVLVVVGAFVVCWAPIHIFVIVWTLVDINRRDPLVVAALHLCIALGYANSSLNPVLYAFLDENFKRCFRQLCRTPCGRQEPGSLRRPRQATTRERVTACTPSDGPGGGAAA

[6] = system: pressure nociception in rats; assay: Analgesic activity, tail pinch assay in rats (i.v.); type: in vivo, rat (male Sprague-Dawley CD strain); settings: iv, 5 min, rat tail pinch, 5 minutes after injection, read-out: Antinociceptive ED50 (half-maximum effective dose)
Procedure: Analgesic activity was assessed by the tail pinch assay in rats (male Sprague-Dawley CD strain, weight approximately 300 g) after intravenous (i.v.) tail vein injection. A group of 6 to 8 animals was injected i.v. with compound in sterile 5% dextrose solution at a concentration of 1-5 mg/mL. Five minutes after injection, an artery clamp (Fisher Scientific Co., self-closing artery forcep, catalog #08-905) was placed on the tail about one inch from the tip of the tail to induce pressure nociception for a short duration (maximum of 20 seconds). The nociceptive response was judged by any sign of discomfort, such as running, squeaking, or turning around to bite the clamp. The dose-response curve was plotted for each compound.

Row | SMILES | proconvulsant activity (rodent test subjects [1]) | analgesia efficacy (rodent test subjects [2]) | analgesia compared with morphine (rodent test subjects [2]) | opioid agonist character [3] | opioid receptor ligand selectivity [3] | muscle rigidity (rodent test subjects [4]) | agonism at mu opioid receptor (mu opioid receptor) | respiratory depression (rodent test subjects [5]) | agonism at delta opioid receptor (delta opioid receptor) | ED50 [6] [mg/kg]
1 | C=CCN1C[C@H](C)N([C@@H](c2cccc(O)c2)c2cccc(C(=O)N(CC)c3ccccc3)c2)C[C@H]1C [Example 12, (+)-3-((αR)-α-((2S,5R)-4-Allyl-2,5-dimethyl-1-piperazinyl)-3-hydroxybenzyl)-N-ethyl-N-phenylbenzamide] | free of proconvulsant activity | efficacious in mediating analgesia | comparable to mu-analgesic morphine | mixed mu/delta opioid agonists | highly selective | much reduced extent | agonism | much reduced extent | agonism | 
2 | C=CCN1C[C@H](C)N([C@@H](c2cccc(O)c2)c2cccc(C(=O)N(C)c3ccccc3F)c2)C[C@H]1C [Example 31, (+)-3-((αR)-α-((2S,5R)-4-Allyl-2,5-dimethyl-1-piperazinyl)-3-hydroxybenzyl)-N-(2-fluorophenyl)-N-methylbenzamide] | free of proconvulsant activity | efficacious in mediating analgesia | comparable to mu-analgesic morphine | mixed mu/delta opioid agonists | highly selective | much reduced extent | agonism | much reduced extent | agonism | 
3 | C=CCN1C[C@H](C)N([C@@H](c2cccc(O)c2)c2cccc(C(=O)N(CC)c3ccc(F)cc3)c2)C[C@H]1C [Example 28, (+)-3-((αR)-α-((2S,5R)-4-Allyl-2,5-dimethyl-1-piperazinyl)-3-hydroxybenzyl)-N-ethyl-N-(4-fluorophenyl)benzamide] | free of proconvulsant activity | efficacious in mediating analgesia | comparable to mu-analgesic morphine | mixed mu/delta opioid agonists | highly selective | much reduced extent | agonism | much reduced extent | agonism | 0.03
4 | C=CCN1C[C@H](C)N([C@@H](c2cccc(O)c2)c2cccc(C(=O)N(CCC)c3ccccc3)c2)C[C@H]1C [Example 27, (+)-3-((αR)-α-((2S,5R)-4-Allyl-2.5-dimethyl-1-piperazinyl)-3-hydroxybenzyl)-N-phenyl-N-propylbenzamide] | free of proconvulsant activity | efficacious in mediating analgesia | comparable to mu-analgesic morphine | mixed mu/delta opioid agonists | highly selective | much reduced extent | agonism | much reduced extent | agonism | 0.04
5 | C=CCN1C[C@H](C)N([C@@H](c2cccc(O)c2)c2cccc(C(=O)N(CC)CC)c2)C[C@H]1C [Example 1, (+)-3-((αR)-α-((2S,5R)-4-Allyl-2,5-dimethyl-1-piperazinyl)-3-hydroxybenzyl)-N,N-diethylbenzamide] | free of proconvulsant activity | efficacious in mediating analgesia | comparable to mu-analgesic morphine | mixed mu/delta opioid agonists | highly selective | much reduced extent | agonism | much reduced extent | agonism | 0.35
6 | C=CCN1C[C@H](C)N([C@@H](c2cccc(O)c2)c2cccc(C(=O)N(C)c3ccc(F)cc3)c2)C[C@H]1C [Example 10, (+)-3-((αR)-α-((2S,5R)-4-Allyl-2,5-dimethyl-1-piperazinyl)-3-hydroxybenzyl)-N-(4-fluorophenyl)-N-methylbenzamide] | free of proconvulsant activity | efficacious in mediating analgesia | comparable to mu-analgesic morphine | mixed mu/delta opioid agonists | highly selective | much reduced extent | agonism | much reduced extent | agonism | 
7 | C=CCN1C[C@H](C)N([C@@H](c2cccc(O)c2)c2cccc(C(=O)N(C)c3cccc(F)c3)c2)C[C@H]1C [Example 16, (+)-3-((αR)-α-((2S,5R)-4-Allyl-2,5-dimethyl-1-piperazinyl)-3-hydroxybenzyl)-N-(3-fluorophenyl)-N-methylbenzamide] | free of proconvulsant activity | efficacious in mediating analgesia | comparable to mu-analgesic morphine | mixed mu/delta opioid agonists | highly selective | much reduced extent | agonism | much reduced extent | agonism | 0.03
8 | C=CCN1C[C@H](C)N([C@@H](c2cccc(O)c2)c2cccc(C(=O)N(C)c3ccccc3)c2)C[C@H]1C [Example 9, (+)-3-((αR)-α-((2S,5R)-4-Allyl-2.5dimethyl-1-piperazinyl)-3-hydroxybenzyl)-N-methyl-N-phenylbenzamide] | free of proconvulsant activity | efficacious in mediating analgesia | comparable to mu-analgesic morphine | mixed mu/delta opioid agonists | highly selective | much reduced extent | agonism | much reduced extent | agonism | 
9 | C=CCN1C[C@H](C)N([C@@H](c2cccc(O)c2)c2cccc(C(=O)N(C)c3ccc(OC)cc3)c2)C[C@H]1C [Example 30, (+)-3-((αR)-α-((2S,5R)-4-Allyl-2.5-dimethyl-1-piperazinyl)-3-hydroxybenzyl)-N-(4-methoxyphenyl)-N-methylbenzamide] | free of proconvulsant activity | efficacious in mediating analgesia | comparable to mu-analgesic morphine | mixed mu/delta opioid agonists | highly selective | much reduced extent | agonism | much reduced extent | agonism | 
